Results published in patent US8273758B2, “Substituted tricyclic derivatives” (Sanofi, priority 2008, dated 2012).

What was measured:
[1] = target: GSK3β (Homo sapiens, UniProt P49841); test: Inhibitory activity against GSK3β (33P-ATP phosphorylation of prephosphorylated GS1 peptide); format: biochemical; conditions: protocol 3: 7.5 μM GS1 peptide, 10 μM ATP, 50 mM Hepes pH 7.2, one hour, room temperature
Description: Four different protocols can be used.
In a first protocol: 7.5 μM of prephosphorylated GS1 peptide and 10 μM ATP (containing 300,000 cpm of ^33P-ATP) were incubated in 25 mM Tris-HCl, pH 7.5, 0.6 mM DTT, 6 mM MgCl2, 0.6 mM EGTA, 0.05 mg/ml BSA buffer for 1 hour at room temperature in the presence of GSK3beta (total reaction volume: 100 microliters).
In a second protocol: 4.1 μM of prephosphorylated GS1 peptide and 42 μM ATP (containing 260,000 cpm ^33P-ATP) were incubated in 80 mM Mes-NaOH, pH 6.5, 1 mM Mg acetate, 0.5 mM EGTA, 5 mM 2-mercaptoethanol, 0.02% Tween 20, 10% glycerol buffer for 2 hours at room temperature in the presence of GSK3beta.
In a third protocol: 7.5 μM of prephosphorylated GS1 peptide and 10 μM ATP (containing 300,000 cpm of ^33P-ATP) were incubated in 50 mM Hepes, pH 7.2, 1 mM DTT, 1 mM MgCl2, 1 mM EGTA, 0.01% Tween 20 buffer for one hour at room temperature in the presence of GSK3beta (total reaction volume: 100 microliters). […]
The reaction was stopped with 100 microliters of a solution made of 25 g polyphosphoric acid (85% P2O5), 126 ml 85% H3PO4, H2O to 500 ml and then diluted to 1:100 before use. […] Incorporated ^33P radioactivity was determined by liquid scintillation spectrometry. […]

Sequence of GSK3β (P49841 whole entry): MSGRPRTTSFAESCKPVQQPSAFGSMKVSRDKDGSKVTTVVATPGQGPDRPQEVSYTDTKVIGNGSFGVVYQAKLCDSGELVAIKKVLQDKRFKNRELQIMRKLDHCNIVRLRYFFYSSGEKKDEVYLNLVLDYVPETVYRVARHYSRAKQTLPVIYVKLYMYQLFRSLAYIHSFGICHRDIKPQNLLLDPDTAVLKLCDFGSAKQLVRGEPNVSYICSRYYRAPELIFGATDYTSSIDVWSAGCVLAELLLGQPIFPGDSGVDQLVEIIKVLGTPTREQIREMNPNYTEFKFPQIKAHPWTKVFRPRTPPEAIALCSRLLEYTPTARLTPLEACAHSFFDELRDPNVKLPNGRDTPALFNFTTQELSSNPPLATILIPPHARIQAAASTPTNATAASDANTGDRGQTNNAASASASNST

O=C(CN1c2ccccc2Cn2c1nc(-c1ccncn1)cc2=O)c1ccccc1 [Compound No. 3, 9-(2-Oxo-2-phenyl-ethyl)-2-pyrimidin-4-yl-9,10-dihydro-1,4a,9-triaza-anthracen-4-one]
IC50 [1]: 6 nM | melting point: 263 to 265 °C
